Results: patent US4681887A, “Pharmaceutical compositions with a neuroleptic action and process for preparing same” (Richter Gedeon Vegyeszeti Gyar Rt., priority 1985, dated 1987)

Tests used:
D-2 receptors = target: T1, D-2 receptors (Rattus norvegicus, UniProt P61169); experiment: D-2 receptor binding (3H-spiroperidol, rat striatum); set-up: species or system Hannover Wistar rats; details: for D-2/α1 Selectivity ratio: ratio of IC50 D-2 to IC50 α1
T1 construct: Hannover Wistar rats were decapitated and the striatum from their cortex was prepared; from tissue; host or cells: striatum membranes of Hannover Wistar rats
Protocol: Hannover Wistar rats were decapitated and the striatum from their cortex was prepared. The striata were homogenized in a 10-fold volume of a cold buffer solution (50 mmoles of TRIS HCl, 120 mmoles of NaCl, 2 mmoles of KCl, 1 mmoles of MgCl2 and 5 mmoles of CaCl2, at pH 7.4) and centrifuged at 40000 g for 15 minutes. The thus-obtained sediment was suspended in the buffer in a concentration of 100 ml/g (in a protein concentration of 0.7 to 0.8 mg/ml).
After an incubation at 37° C. for 15 minutes, the samples were filtered through a Whatman GF/B filter and washed 2 times with 5 ml of buffer solution each.
For the determination of the non-specific binding, 1 μmole of (+)-butaclamol was used.
(§1) On using both above-mentioned receptor binding methods, a scintillation solution was applied onto the filter paper in the cuvet and the isotopic radioactivity was measured on the next day.

α1-adrenergic receptor = α1-adrenergic receptor binding (3H-prazosine, rat cortex); set-up: species or system Hannover Wistar rats; details: for IC50: 3H-prazosine, rat cortex, 23° C., 30 minutes; for side-effect on the α1 receptors relative to chloropromazine: from IC50 on α1 receptors
Protocol: Hannover Wistar rats were decapitated, their cortex were prepared and homogenized in a 20-fold volume of a buffer solution (50 mmoles of TRIS HCl, at pH 8). The membrane was centrifuged at 45000 g twice for 15 minutes and then suspended in the buffer in a concentration of 30 ml/g (in a protein concentration of 1.7 to 1.8 mg/ml).
After an incubation at 23° C. for 30 minutes, the samples were filtered through a Whatman GF/B filter and washed 4 times with 4 ml of buffer solution each.
For the determination of the non-specific binding, 10 μmoles of phentolamine were used.
as §1

[1] = tested on: conditioned avoidance response; experiment: Inhibition of the conditioned avoidance response (CAR inhibition); assay type: in vivo, Hannover Wistar rats; details: Rattus norvegicus, po, 1 h; rats, p.o., 60 minutes before experiment
Protocol: (§2) The neuroleptic effect of the compounds was shown by investigations on the central nervous system of Hannover Wistar rats and CFLP mice. The compounds to be tested were orally administered in a dose of 5 ml/kg of body-weight to rats or in a dose of 10 ml/kg of body-weight to mice, respectively at 60 minutes before beginning the experiment.
(§3) The compounds to be tested were suspended in TWEEN 80 and diluted to the desired concentration by adding physiological saline solution.
(§4) The results are expressed either as percentages, or ED50 values calculated by using the probit analysis are given together with the 95% fiducial (confidential) limits (J. T. Litchfield and F. Wilcoxon: J. Pharmacol. 96, 99 (1949)).
Male rats weighing 140 to 160 g were conditioned for 10 days in an automated six-channel shuttle box (D. Bovet et. al.: Neuropsychopharmacology, Vol. 2., p. 142 Elsevier Publishing House, Amsterdam, 1961).
Each one session consisted of 6 cycles; the time of a partial cycle was: 15 seconds for intersignal time, 15 seconds for light stimulus, 10 seconds for light stimulus and footshock (0.8 mA). […]

catalepsy = experiment: Investigation of the cataleptogenic effect; assay type: in vivo, Hannover Wistar rats; details: Rattus norvegicus, po; rats, observed hourly for 5 hours
Protocol: as §2, §3, §4
The method of G. Stille and H. Launer Arzneim.-forsch. 21, 252 (1971) was used for this study.
Male rats weighing 90 to 110 g (n=5) were treated with different doses of the compounds to be tested, then the number of the animals showing catalepsy was hourly observed for 5 hours.

[2] = tested on: amphetamine group toxicity; experiment: Investigation of the amphetamine group toxicity; assay type: in vivo, CFLP mice; details: d-amphetamine 25 mg/kg i.p., 24 hours
Protocol: as §2, §3, §4
The method of C. D. Proctor et al. (Arch. Int. Pharmacodyn. Ther. 163, 74 (1966)) was used for this study.
The examination was carried out on mice of both sexes weighing 22 to 27 g (n=5). At the […], d-amphetamine in a dose of 25 mg/kg was intraperitoneally given to the animals tightly closed together (25 cm^2 /mouse) and the percentage of the perished animals was registered after 24 hours.

[3] = tested on: hypermotility induced by L-Dopa; experiment: Inhibition of the hypermotility induced by L-Dopa; assay type: in vivo, CFLP mice; details: mice, 30 mg/kg p.o., nialamide 40 mg/kg and L-Dopa 100 mg/kg i.p., difference from control
Protocol: as §2, §3, §4
The method of N. P. Plotnikoff et al. ("The Thyroid Axis, Drugs and Behavior", Raven Press, N.Y., pp. 103-113 (1974)) was used for this study.
Male mice (n=15) weighing 18 to 21 g were intraperitoneally treated with 40 mg/kg of nialamide and after 60 minutes, the substances to be tested were administered in a dose of 30 mg/kg. Thirty minutes later, 100 mg/kg of L-Dopa were intraperitoneally administered. The locomotor activity of the animals was measured by using an LKB Animex DSE motimeter in each 30th minute for 2 hours. The results are given as the percentage of the difference from the control.

apomorphine hypothermia = experiment: Investigation of the apomorphine hypothermia-reverting effect; assay type: in vivo, Hannover Wistar rats; details: rats, 10 mg/kg p.o., apomorphine 5 mg/kg i.p.
Protocol: as §2, §3, §4
The method of A. Barnett et al. (Arch. Int. Pharmacodyn. Ther. 198, 242 (1972)) was used for this study.
The rectal temperature of rats (n=5) was determined by using an Ellab thermometer (E3) before administering the substances to be tested in a dose of 10 mg/kg. Thereafter, 5 mg/kg of apomorphine were intraperitoneally given and the temperature of the animals was hourly registered for 3 hours.

asphyxial anoxia = experiment: Investigation of the asphyxial anoxia; assay type: in vivo, CFLP mice; details: Mus musculus, po, 1 h; mice, survival time longer by 30% than control counted as protected
Protocol: as §2, §3, §4
The method of C. Caillard et al. (Life Sci. 16, 1607 (1975)) was used for this study.
Mice (n=5) of both sexes weighing 22 to 24 g were starved for 16 hours, then treated with 50 mg/kg dose of the substances to be tested. After 60 minutes, the animals were placed in tightly closed glass bottles of 100 ml volume and the survival time was registered.

central dopaminergic = details: Acta Pharm. Suec. 1983, 111-119; cited from earlier work

T1 sequence (P61169 whole entry): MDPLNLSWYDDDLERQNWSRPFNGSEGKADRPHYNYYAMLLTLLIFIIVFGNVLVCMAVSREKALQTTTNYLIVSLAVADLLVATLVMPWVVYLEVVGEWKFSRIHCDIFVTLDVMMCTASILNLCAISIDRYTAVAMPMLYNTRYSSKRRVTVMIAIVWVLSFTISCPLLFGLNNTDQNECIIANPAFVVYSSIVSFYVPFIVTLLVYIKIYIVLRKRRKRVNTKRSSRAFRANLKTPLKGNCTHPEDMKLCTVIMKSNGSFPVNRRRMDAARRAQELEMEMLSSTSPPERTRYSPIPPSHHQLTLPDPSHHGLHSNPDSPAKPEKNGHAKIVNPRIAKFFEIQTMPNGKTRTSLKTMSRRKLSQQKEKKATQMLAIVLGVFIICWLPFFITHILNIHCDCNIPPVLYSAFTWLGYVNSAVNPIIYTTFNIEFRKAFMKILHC

CN1C[C@H](CO)C=C2c3cccc4[nH]c(Br)c(c34)C[C@H]21.O=C(O)/C=C\C(=O)O [2-Bromolysergol maleate]
IC50 (D-2 receptors): 76.5 nM | D-2/α1 Selectivity ratio (D-2 receptors): 3.2 | IC50 (α1-adrenergic receptor): 24.1 nM | ED50 [1]: 2.7 mg/kg | ED50 (catalepsy): 10.8 mg/kg | Amphetamine group tox., mice died (footnote *) ([2]; 20 mg/kg p.o.): 10% | L-Dopa induced hypermot. inhibition % (60 min.) [3]: -60% | L-Dopa induced hypermot. inhibition % (120 min.) [3]: -65% | Apomorphine hypothermia, difference of temperature change vs apomorphine (60 min.) (apomorphine hypothermia): +1.9 °C | Apomorphine hypothermia, difference of temperature change vs apomorphine (120 min.) (apomorphine hypothermia): +2.4 °C | ED50 (asphyxial anoxia): 35.6 mg/kg

CCN(CC)C(=O)NC1C=C2c3cccc4[nH]c(Br)c(c34)CC2N(C)C1 (stereo not drawn) [2-Bromolysuride, reference compound]
ED50 (catalepsy): 3.3 mg/kg

CN1C[C@H](CO)C=C2c3cccc4[nH]c(Cl)c(c34)C[C@H]21.O=C(O)/C=C\C(=O)O [2-Chlorolysergol maleate]
IC50 (D-2 receptors): 5.3 nM | D-2/α1 Selectivity ratio (D-2 receptors): 0.12 | IC50 (α1-adrenergic receptor): 45.4 nM | ED50 [1]: 3.4 mg/kg | ED50 (catalepsy): 13.6 mg/kg | ED50 ([2]; Mus musculus, po, mice, p.o., read-out: Amphetamine group tox. ED50): 28.9 mg/kg | L-Dopa induced hypermot. inhibition % (60 min.) [3]: -47% | L-Dopa induced hypermot. inhibition % (120 min.) [3]: -50% | Apomorphine hypothermia, difference of temperature change vs apomorphine (60 min.) (apomorphine hypothermia): +0.9 °C | Apomorphine hypothermia, difference of temperature change vs apomorphine (120 min.) (apomorphine hypothermia): +1.1 °C | ED50 (asphyxial anoxia): 39.8 mg/kg

CN1C[C@H](CO)C=C2c3cccc4[nH]c(Br)c(c34)C[C@H]21 [2-bromolysergol]
side-effect on the α1 receptors relative to chloropromazine (α1-adrenergic receptor): somewhat lower | central dopaminergic agonist activity (central dopaminergic): inactive

CN1C[C@H](CO)C=C2c3cccc4[nH]c(Cl)c(c34)C[C@H]21 [2-chlorolysergol]
D-2/α1 selectivity ratio relative to chloropromazine (D-2 receptors): ten times lower | dopaminergic (D-2) activity relative to chloropromazine (D-2 receptors; from IC50 on D-2 receptors): three times as high | side-effect on the α1 receptors relative to chloropromazine (α1-adrenergic receptor): one-third | central dopaminergic agonist activity (central dopaminergic): inactive

CN(C)CCCN1c2ccccc2Sc2ccc(Cl)cc21 [Chloropromazine, reference compound]
IC50 (α1-adrenergic receptor): 15.8 nM
